Experimental data taken from US20180369244A1, “BTK Inhibitors to Treat Solid Tumors Through Modulation of the Tumor Microenvironment” (Acerta Pharma B.V., priority 2014, published 2018).

Legend:
BTK = target: T1, BTK (Mus musculus, UniProt P35991); test: Molecular probe assay, BTK occupancy in MDSCs of tumor bearing PDA mice; type: in vivo; settings: 15 mg/kg BID, Day 8, 4 hours post dose
T1 construct: endogenous in cells; host or cells: granulocytic and monocytic MDSCs from tumor-bearing PDA mice
Text: A molecular probe assay was used to calculate the percent irreversible occupancy of total BTK.

B cell receptor = test: Whole blood B cell receptor signalling, CD69 on CD19+ B cells; type: cell-based; settings: 2 h incubation, anti-human IgD 18 h
Protocol: Blood from four healthy donors was incubated for 2 hours with the compounds shown over a concentration range, and then stimulated with anti-human IgD [10 μg/mL] for 18 hours. The mean fluorescent intensity (MFI) of CD69 (and CD86, data not shown) on gated CD19+ B cells was measured by flow cytometry. MFI values were normalized so that 100% represents CD69 level in stimulated cells without inhibitor, while 0% represents the unstimulated/no drug condition. […]

ID8 ovarian cancer = test: ID8 syngeneic orthotropic ovarian cancer murine model; type: in vivo, mice; settings: 15 mg/kg/BID oral
Text: Human ovarian cancer models, including the ID8 syngeneic orthotropic ovarian cancer model and other animal models, are described in Fong and Kakar, J. Ovarian Res. 2009, 2, 12; Greenaway, et al., Gynecol. Oncol. 2008, 108, 385-94; Urzua et al., Tumour Biol. 2005, 26, 236-44; Janat-Amsbury, et al., Anticancer Res. 2006, 26, 3223-28; Janat-Amsbury, et al., Anticancer Res. 2006, 26, 2785-89. […] The results of the study are shown in FIG. 5, FIG. 6, FIG. 7, FIG. 8, FIG. 9, FIG. 10, FIG. 11, and FIG. 12.

[1] = test system: pancreatic cancer in KPC mice; test: KPC pancreatic cancer model (spontaneous tumors); type: in vivo; settings: 15 mg/kg BID oral
Protocol: The KPC mouse model recapitulates many of the molecular, histopathologic, and clinical features of human disease (Westphalen and Olive, Cancer J. 2012, 18, 502-510). Combination therapy with gemcitabine was also evaluated in this model. Mice were enrolled after identification of spontaneously appearing tumors in the pancreas that were >100 mm^3 (as assessed by high-resolution ultrasonography).

NK cells = test: Antibody-dependent NK cell IFN-γ secretion (ELISA); type: cell-based, human; settings: 1 μM
Protocol: The HER18 cells were maintained in DEM supplemented with fetal bovine serum, penicillin-streptomycin and. Prior to assay, HER18 cells were harvested using trypsin-EDTA, washed with phosphate-buffered saline (PBS) containing 5% serum and viable cells were counted. […] NK cells from CLL patients and healthy volunteers were enriched from peripheral blood collected in sodium citrate anti-coagulant tubes and then subject to density centrifugation. Removal of non NK cells was performed using negative selection by MACS separation. Freshly isolated NK cells were washed three times, enumerated, and then used immediately for ADCC assays.
Cytokine secretion was determined as follows. Rituximab and trastuzumab-dependent NK-cell mediated degranulation and cytokine release were assessed using lymphoma and HER2+ breast cancer cell lines (DHL-4 and HER18, respectively). […] NK cells from healthy donors were enriched as described above and then added to the target cells and incubated for 4 hours at 37° C. Triplicate cultures were performed on NK cells from donors. After incubation, supernatants were harvested, centrifuged briefly, and then analyzed for interferon-γ using an enzyme-linked immunosorbent assay (ELISA).

EGFR = test: EGF-induced EGFR phosphorylation in A431 cells (phosphoflow); type: cell-based, human
Protocol: Phosphoflow cytometry was performed with p-EGFR (Y1069). MFI values were normalized so that 100% represents the p-EGFR level in stimulated cells without inhibitor, while 0% represents the unstimulated/no drug condition.

[2] = GLP safety pharmacology in rats (functional observation battery, respiratory function); type: in vivo; settings: doses through 300 mg/kg
Text: Formula (II) was well tolerated in standard in vivo Good Laboratory Practices (GLP) studies of pharmacologic safety.

[3] = test system: BCR activation markers CD69 and CD86; test: In vivo potency, CD69 and CD86 expression after IgM stimulation; parameters: species or system mice; settings: oral gavage, 3 h post-dose
Text: CD86 and CD69 are cell surface proteins that are BCR activation markers. […] BCR was stimulated with IgM and the expression of activation marker CD69 and CD86 are monitored by flow cytometry and to determine EC50 values.

[4] = test system: orthotopic pancreatic cancer (KPC cell line); test: Orthotopic pancreatic cancer model; type: in vivo, C57BL/6 mice; settings: 15 mg/kg oral
Protocol: Cell line derived from KrasGl2D;Trp53R172H;Pdx1-Cre (KPC) mice were orthotopically implanted into the head of the pancreas after 35 passages. Based on the mice background from where the cell lines were generated, 1×10^6 cells were injected in C57BL/6 mice. Throughout the experiment, animals were provided with food and water ad libitum and subjected to a 12-h dark/light cycle. Animal studies were performed in accordance with the U.S. Public Health Service “Guidelines for the Care and Use of Laboratory Animals” (IACUC). After euthanization, pancreatic tumors were dissected out, weighed and single cell suspensions were prepared for flow cytometry analysis.

CYP3A4 = CYP3A4 (Homo sapiens, UniProt P08684); test: Loss of parent drug as catalyzed by CYPs; type: in vitro ADME
Text: No unique human metabolite was identified. Preliminary evaluations of metabolism in the plasma, bile, and urine of rats, dogs, and monkeys indicated metabolic processes of oxidation, glutathione binding, and hydrolysis.

CD8+ T cells = test: Cytotoxic T cell (CTL) assay; type: cell-based; settings: 500 nM
Protocol: CD8^+ T cells have at least two primary effector functions: (1) produce large amounts of IFN-γ (which activates macrophages), and (2) cytolytic activity. […] The targets were B lymphoblasts from lipopolysaccharide (LPS) treated cultures. The assay was performed by incubating different ratios of effectors:targets for 4 hours.

NSCLC (KrasLA2) = test: KrasLA2 genetic NSCLC model; type: in vivo, mice
Text: The model is designed to have sporadic expression in single cells of G12D mutant Kras off its own promoter triggered by spontaneous intrachromosomal recombination. Johnson, et al. Nature 2001, 410, 1111-16. While the mutant Kras protein is expressed in a few cells in all tissues, tumor development is seen only in the lung at high penetrance.

CYP3A4, sequence (P08684 whole entry): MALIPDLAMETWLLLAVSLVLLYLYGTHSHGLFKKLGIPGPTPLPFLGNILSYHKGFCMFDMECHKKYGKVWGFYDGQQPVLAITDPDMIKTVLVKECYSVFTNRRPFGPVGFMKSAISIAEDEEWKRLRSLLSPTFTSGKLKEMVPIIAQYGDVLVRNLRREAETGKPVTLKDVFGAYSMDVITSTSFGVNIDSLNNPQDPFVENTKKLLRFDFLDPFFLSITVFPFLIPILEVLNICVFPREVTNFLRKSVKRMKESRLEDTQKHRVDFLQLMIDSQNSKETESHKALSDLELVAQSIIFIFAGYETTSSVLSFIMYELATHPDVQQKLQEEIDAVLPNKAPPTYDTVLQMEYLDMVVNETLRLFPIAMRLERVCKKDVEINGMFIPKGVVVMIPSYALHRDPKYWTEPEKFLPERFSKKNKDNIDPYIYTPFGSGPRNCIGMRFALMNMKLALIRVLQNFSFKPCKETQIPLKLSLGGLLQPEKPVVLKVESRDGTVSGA
T1 sequence (P35991 whole entry): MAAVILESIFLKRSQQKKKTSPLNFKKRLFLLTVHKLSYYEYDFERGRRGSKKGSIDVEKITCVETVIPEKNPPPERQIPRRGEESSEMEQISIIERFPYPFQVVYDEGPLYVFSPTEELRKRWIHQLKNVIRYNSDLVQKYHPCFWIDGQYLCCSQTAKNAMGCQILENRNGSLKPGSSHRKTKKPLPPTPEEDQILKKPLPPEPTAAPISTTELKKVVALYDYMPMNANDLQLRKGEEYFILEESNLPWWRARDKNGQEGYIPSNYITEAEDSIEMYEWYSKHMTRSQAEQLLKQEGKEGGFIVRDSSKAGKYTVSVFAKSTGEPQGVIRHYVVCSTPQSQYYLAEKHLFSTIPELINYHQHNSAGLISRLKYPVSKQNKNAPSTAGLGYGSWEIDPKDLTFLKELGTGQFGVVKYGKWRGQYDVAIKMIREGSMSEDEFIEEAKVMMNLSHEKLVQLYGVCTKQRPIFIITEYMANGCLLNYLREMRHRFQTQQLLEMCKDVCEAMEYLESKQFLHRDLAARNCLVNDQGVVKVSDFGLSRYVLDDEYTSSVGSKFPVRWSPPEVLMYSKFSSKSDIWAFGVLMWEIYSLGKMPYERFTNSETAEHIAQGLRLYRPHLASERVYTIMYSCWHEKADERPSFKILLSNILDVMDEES

Structure (SMILES): CC#CC(=O)N1CCC[C@H]1c1nc(-c2ccc(C(=O)Nc3ccccn3)cc2)c2c(N)nccn12 [Formula (II), (S)-4-(8-amino-3-(1-(but-2-ynoyl)pyrrolidin-2-yl)imidazo[1,5-a]pyrazin-1-yl)-N-(pyridin-2-yl)benzamide]
- irreversible BTK occupancy in granulocytic and monocytic MDSC (BTK): Complete BTK occupancy
- EC50 (B cell receptor): 8.2 nM
- ID8 ovarian cancer growth (ID8 ovarian cancer): impairs ID8 ovarian cancer growth
- immunosuppressive B cells in tumor-bearing mice (ID8 ovarian cancer): significant reduction in immunosuppressive B cells
- tumor associated Tregs and CD8+ T cells (ID8 ovarian cancer): significant reduction in immunosuppressive tumor associated Tregs and an increase in CD8^+ T cells
- CD8+ cells in tumor tissues [1]: significant increase
- immunosuppressive TAMs, MDSCs and Tregs in tumor tissues [1]: significantly reduced
- pancreatic cancer growth and animal survival [1]: substantially slowed pancreatic cancer growth and increased animal survival
- survival at day 14 [1]: 6/6
- survival at day 28 [1]: 5/6
- average tumor volume at day 28 ([1]; predose average 165 mm^3): 272 mm^3
- IFN-γ or NK cell degranulation (NK cells): did not inhibit
- inhibition of trastuzumab-stimulated NK cell cytokine release (NK cells; HER18 target cells): no inhibitory effect
- inhibition of in vitro EGFR phosphorylation (EGFR; 10 μM): no inhibition
- inhibition at 10 µM (EGFR; Homo sapiens, A-431, read-out: EGF-induced p-EGFR inhibition): 7%
- functional observation battery: neurobehavioral effects, body temperature [2]: no adverse effects
- respiratory function [2]: no treatment-related adverse effects
- in vivo potency, inhibition of activation markers [3]: more potent at inhibiting expression of activation makers than ibrutinib
- immunosuppressive tumor associated myeloid cells and Tregs ([4]; pancreatic tumor-bearing mice): reduce immunosuppressive tumor associated myeloid cells and Tregs
- tumor volume ([4]; vs vehicle): statistically significant reductions in tumor volume
- CYP metabolism (CYP3A4): metabolized by CYP3A4
- CD8+ T cell function as % cytotoxicity (CD8+ T cells): no effect on CD8^+ T cell function
- number of tumors (NSCLC (KrasLA2); 15 mg/kg): fewer overall tumors
- tumor volumes versus vehicle (NSCLC (KrasLA2); 15 mg/kg): significant decrease in tumor volumes
- immunosuppressive tumor associated TAMs (NSCLC (KrasLA2); FIG. 62): significant reduction
- immunosuppressive tumor associated MDSCs (NSCLC (KrasLA2); FIG. 63): significant reduction
- immunosuppressive tumor associated Tregs (NSCLC (KrasLA2); FIG. 64): significant reduction
